Experimental data from patent US20240197643A1, “ORAL DELIVERY OF NANOPARTICLES FOR KIDNEY DISEASE” (UNIVERSITY OF SOUTHERN CALIFORNIA, priority 2020, published 2024).
In brackets after ≈: the same amount, converted by molar mass. Where two headings read alike, the source gives them in different places.

What was measured:
[1] = target: megalin (mouse) (UniProt A2ARV4); experiment: confocal immunohistochemistry of mouse kidney sections 24 h after i.v. injection; colocalization of Cy7 micelle signal with anti-megalin Alexa Fluor 488 signal (ImageJ coloc2)
[2] = Solubility in MQ; assay type: physicochemical; details: MQ (water)
[3] = Encapsulation study of everolimus or rapamycin in micelles; assay type: physicochemical
Experimental: Micelles were assembled by dissolving DSPE-PEG(2000)-methoxy in methanol at 100 μM with either everolimus or rapamycin at different lipid:drug molar ratios (2:1, 5:1, 10:1, 20:1), mixing the components, and evaporating the organic solvent under nitrogen. The resulting film was dried under vacuum over night, and then hydrated at 80° C. for 30 min in water and allowed to cool to room temperature overnight before DLS and TEM analysis. DLS measurements were determined at 90° and 637 nm using a Malvern Zetasizer. Free drug was separated by syringe filtering micelles using PTFE syringe filter, pore size 0.1 μm. To calculate encapsulation efficiency and drug loading, micelles were disrupted using DMSO and encapsulated drug was quantified by reading absorbance at 278 nm in a UV Greiner 96-well plate.

[4] = Serum fluorescence and absolute bioavailability after oral gavage; assay type: in vivo, C57BL/6 J mice; details: oral gavage 10 mg/kg rhodamine, relative to IV
Experimental: Blood draws were performed either retro-orbitally or via tail vein at 30 min, 3, 6, 12, 24, 36, and 48 h post-administration. Fluorescence was measured in serum and quantified using a rhodamine calibration curve developed in mouse serum.

[5] = Histology and intestinal localization after oral gavage; assay type: in vivo, C57BL/6 J mice; details: 24 h after oral gavage
From the text: Following ex vivo imaging, the brain, heart, lungs, liver, kidneys, spleen, intestines, and bladder were immediately frozen and embedded in OCT (Tissue Tek, Sakura Finetek, Torrance, CA, USA). 10 μm sections were obtained (CM3050 S Cryostat, Leica, Nussloch, Germany) and placed on Superfrost Plus slides (Fisherbrand, Waltham, MA, USA). Tissue sections were stained with hematoxylin & eosin (H&E) and imaged (Leica DMi8, Leica, Wetzlar, Germany, N=3). For staining of intestinal mucin, tissue sample were processed with an alcian blue 1%, pH 2.5 stain kit (Newcomer Supply, Middleton, WI, USA). Briefly, tissue sections on slides were washed in acetic acid for 3 min, incubated in alcian blue for 30 min at 4° C. in a humidified chamber, and counterstained with Nuclear Fast Red (Vector Laboratories, Burlingame, CA, USA). Samples were mounted using VectaMount™ (Vector Laboratories, Burlingame, CA, USA).

[6] = tested on: Caco-2 cells; experiment: Cellular uptake and transport of CS-NP with pathway inhibitors; assay type: in vitro ADME, Human; details: same conditions as CS-NP R
Experimental: To assess the cellular uptake pathways of chitosan nanoparticles, Caco-2 cells were pretreated with medium containing colchicine (transcytosis inhibitor, 10 μM, for 60 min) or wortmannin (macropinocytosis inhibitor, 0.06 mM, for 3 h) before 100 μL of 100 μM rhodamine-loaded chitosan nanoparticles (CS-NP R) was administered in the apical chamber. The amount of rhodamine fluorescence was measured in the basolateral chamber over the course of 4 h.

[7] = tested on: Caco-2 cell monolayers; experiment: Transepithelial resistance (TER) surveillance; assay type: cell-based, Human; details: up to 3 days after administration
Experimental: For transport and monolayer resistance experiments, Caco-2 cell monolayers were seeded onto Transwell inserts (Corning, NY, USA; diameter 6.5 mm, growth area 0.33 cm^2, pore size 0.4 μm), at an initial density of 3×10^5 cell/cm2 and maintained for 21 days in complete medium to form a confluent monolayer. The change of TER, representing the tightness of the cell monolayers, was measured by an EVOM2 Epithelial Voltohmmeter (World Precision Instruments, USA). Monolayers reaching steady-state values in the range of 300-400 Ω-cm^2 were used for studies.
Additionally, the effect of paracellular transport through tight junctions was monitored via TER of Caco-2 cells seeded on Transwell inserts. TER measurements were performed daily for three days prior to treatment with CS-NP R, free Rhodamine (free R), or PBS control to establish baseline measurements. TER was monitored every 6 h, then again on day 2 and 3 post-administration.

[8] = Ex vivo imaging of orally administered CS-NP; assay type: in vivo, C57BL/6 J mice; details: oral gavage 10 mg/kg rhodamine
Experimental: To assess the biodistribution of CS-NP semi-quantitatively, 6-7 week old male and female C57BL/6 J mice (Jackson Laboratories, Bar Harbor, ME, USA) were orally gavaged with 10 mg/kg of rhodamine loaded in 200 μL of 500 μM CS-NP R, 10 mg/kg of free R, or PBS control. Mice were euthanized after 3, 24, or 48 h […] and organs (e.g., brain, heart, lungs, liver, kidneys, spleen, intestines, and bladder) were excised and imaged ex vivo on an AMI HTX in vivo imaging system (Spectral Instruments Imaging, Tucson, AZ, USA). The fluorescence signal was quantified via Aura software (Spectral Instruments Imaging, Tucson, AZ, USA, N ≥4), and the background was subtracted from the PBS treated group. The mean radiance (photons/s/cm2/sr) for each organ was quantified as a region of interest, and % of total organ fluorescence was obtained by dividing each organ by the sum of all the organ regions. Urine and blood samples were collected following organ harvest and stored at −20° C. until further analysis. All animal procedures followed NIH guidelines for the care and use of laboratory animals and were approved by the University of Southern California's Institutional Animal Care and Use Committee.

[9] = Kidney health in PKD mice (i-Stat Chem-8+); assay type: in vivo, Pkd1fl/fl; Pax8 rtTA; Tet-O-Cre mice; details: day of harvest
Experimental: Serum components, electrolytes, and kidney health markers including sodium (Na), potassium (K), chloride (Cl), ionized calcium (iCa), total carbon dioxide (tCO2), glucose (Glu), blood urea nitrogen (BUN)/Urea, creatinine (Crea), hematocrit (Hct), hemoglobin (Hb), and anion gap (AnGap) were assessed in diseased Pkd1fl/fl; Pax8 rtTA; Tet-OCre mice. 90 μL of blood taken from the submandibular vein on the day of harvest was analyzed using Chem-8+ cartridges for the i-Stat Handheld Blood Analyzer (Abbott, Chicago, IL, USA).

[10] = tested on: AMPK; experiment: Transwell intestinal cell model, pAMPK/AMPK ELISA of basolateral mpkCCDc14; assay type: cell-based; details: 300 μM, up to 48 h, across Caco2 monolayer on transwell insert
From the text: FIG. 17A provides a transwell schematic of mpkCCDc14 cell monolayers, with a Caco2 cell monolayer seeded on the transwell insert. […] Chitosan Disrupts Intestinal Tight Junctions.

[11] = human, in vivo, cited from earlier work
[12] = tested on: epithelial sodium channel (ENaC); experiment: ENaC current measurement in mpkCCDc14 monolayers; assay type: cell-based, Mouse; details: after 48 h, mpkCCDc14 cells, 300 μM met
Experimental: To validate the therapeutic efficacy of met on the reduction of ENAC current, TER and potential difference (PD) measurements were made on mpkCCDc14 cells seeded on Transwell filters as described above. ENaC-dependent equivalent short-circuit currents (leq) was estimated by Ohm's law, dividing the measured PD by the TER value and the area of one Transwell membrane (0.33 cm2). mpkCCDc14 cell cultures were treated with 100 μL CS-NP met (300 μM met), CS-NP, or PBS at pH 7.4.

[13] = human, in vivo; cited from earlier work
[14] = cited from earlier work
[15] = tested on: cortical collecting duct (CCD); details: identified in the literature; cited from earlier work
[16] = DSPE-PEG(2000)-methoxy:drug molar ratio 2:1

megalin (mouse), sequence (A2ARV4 26-4660): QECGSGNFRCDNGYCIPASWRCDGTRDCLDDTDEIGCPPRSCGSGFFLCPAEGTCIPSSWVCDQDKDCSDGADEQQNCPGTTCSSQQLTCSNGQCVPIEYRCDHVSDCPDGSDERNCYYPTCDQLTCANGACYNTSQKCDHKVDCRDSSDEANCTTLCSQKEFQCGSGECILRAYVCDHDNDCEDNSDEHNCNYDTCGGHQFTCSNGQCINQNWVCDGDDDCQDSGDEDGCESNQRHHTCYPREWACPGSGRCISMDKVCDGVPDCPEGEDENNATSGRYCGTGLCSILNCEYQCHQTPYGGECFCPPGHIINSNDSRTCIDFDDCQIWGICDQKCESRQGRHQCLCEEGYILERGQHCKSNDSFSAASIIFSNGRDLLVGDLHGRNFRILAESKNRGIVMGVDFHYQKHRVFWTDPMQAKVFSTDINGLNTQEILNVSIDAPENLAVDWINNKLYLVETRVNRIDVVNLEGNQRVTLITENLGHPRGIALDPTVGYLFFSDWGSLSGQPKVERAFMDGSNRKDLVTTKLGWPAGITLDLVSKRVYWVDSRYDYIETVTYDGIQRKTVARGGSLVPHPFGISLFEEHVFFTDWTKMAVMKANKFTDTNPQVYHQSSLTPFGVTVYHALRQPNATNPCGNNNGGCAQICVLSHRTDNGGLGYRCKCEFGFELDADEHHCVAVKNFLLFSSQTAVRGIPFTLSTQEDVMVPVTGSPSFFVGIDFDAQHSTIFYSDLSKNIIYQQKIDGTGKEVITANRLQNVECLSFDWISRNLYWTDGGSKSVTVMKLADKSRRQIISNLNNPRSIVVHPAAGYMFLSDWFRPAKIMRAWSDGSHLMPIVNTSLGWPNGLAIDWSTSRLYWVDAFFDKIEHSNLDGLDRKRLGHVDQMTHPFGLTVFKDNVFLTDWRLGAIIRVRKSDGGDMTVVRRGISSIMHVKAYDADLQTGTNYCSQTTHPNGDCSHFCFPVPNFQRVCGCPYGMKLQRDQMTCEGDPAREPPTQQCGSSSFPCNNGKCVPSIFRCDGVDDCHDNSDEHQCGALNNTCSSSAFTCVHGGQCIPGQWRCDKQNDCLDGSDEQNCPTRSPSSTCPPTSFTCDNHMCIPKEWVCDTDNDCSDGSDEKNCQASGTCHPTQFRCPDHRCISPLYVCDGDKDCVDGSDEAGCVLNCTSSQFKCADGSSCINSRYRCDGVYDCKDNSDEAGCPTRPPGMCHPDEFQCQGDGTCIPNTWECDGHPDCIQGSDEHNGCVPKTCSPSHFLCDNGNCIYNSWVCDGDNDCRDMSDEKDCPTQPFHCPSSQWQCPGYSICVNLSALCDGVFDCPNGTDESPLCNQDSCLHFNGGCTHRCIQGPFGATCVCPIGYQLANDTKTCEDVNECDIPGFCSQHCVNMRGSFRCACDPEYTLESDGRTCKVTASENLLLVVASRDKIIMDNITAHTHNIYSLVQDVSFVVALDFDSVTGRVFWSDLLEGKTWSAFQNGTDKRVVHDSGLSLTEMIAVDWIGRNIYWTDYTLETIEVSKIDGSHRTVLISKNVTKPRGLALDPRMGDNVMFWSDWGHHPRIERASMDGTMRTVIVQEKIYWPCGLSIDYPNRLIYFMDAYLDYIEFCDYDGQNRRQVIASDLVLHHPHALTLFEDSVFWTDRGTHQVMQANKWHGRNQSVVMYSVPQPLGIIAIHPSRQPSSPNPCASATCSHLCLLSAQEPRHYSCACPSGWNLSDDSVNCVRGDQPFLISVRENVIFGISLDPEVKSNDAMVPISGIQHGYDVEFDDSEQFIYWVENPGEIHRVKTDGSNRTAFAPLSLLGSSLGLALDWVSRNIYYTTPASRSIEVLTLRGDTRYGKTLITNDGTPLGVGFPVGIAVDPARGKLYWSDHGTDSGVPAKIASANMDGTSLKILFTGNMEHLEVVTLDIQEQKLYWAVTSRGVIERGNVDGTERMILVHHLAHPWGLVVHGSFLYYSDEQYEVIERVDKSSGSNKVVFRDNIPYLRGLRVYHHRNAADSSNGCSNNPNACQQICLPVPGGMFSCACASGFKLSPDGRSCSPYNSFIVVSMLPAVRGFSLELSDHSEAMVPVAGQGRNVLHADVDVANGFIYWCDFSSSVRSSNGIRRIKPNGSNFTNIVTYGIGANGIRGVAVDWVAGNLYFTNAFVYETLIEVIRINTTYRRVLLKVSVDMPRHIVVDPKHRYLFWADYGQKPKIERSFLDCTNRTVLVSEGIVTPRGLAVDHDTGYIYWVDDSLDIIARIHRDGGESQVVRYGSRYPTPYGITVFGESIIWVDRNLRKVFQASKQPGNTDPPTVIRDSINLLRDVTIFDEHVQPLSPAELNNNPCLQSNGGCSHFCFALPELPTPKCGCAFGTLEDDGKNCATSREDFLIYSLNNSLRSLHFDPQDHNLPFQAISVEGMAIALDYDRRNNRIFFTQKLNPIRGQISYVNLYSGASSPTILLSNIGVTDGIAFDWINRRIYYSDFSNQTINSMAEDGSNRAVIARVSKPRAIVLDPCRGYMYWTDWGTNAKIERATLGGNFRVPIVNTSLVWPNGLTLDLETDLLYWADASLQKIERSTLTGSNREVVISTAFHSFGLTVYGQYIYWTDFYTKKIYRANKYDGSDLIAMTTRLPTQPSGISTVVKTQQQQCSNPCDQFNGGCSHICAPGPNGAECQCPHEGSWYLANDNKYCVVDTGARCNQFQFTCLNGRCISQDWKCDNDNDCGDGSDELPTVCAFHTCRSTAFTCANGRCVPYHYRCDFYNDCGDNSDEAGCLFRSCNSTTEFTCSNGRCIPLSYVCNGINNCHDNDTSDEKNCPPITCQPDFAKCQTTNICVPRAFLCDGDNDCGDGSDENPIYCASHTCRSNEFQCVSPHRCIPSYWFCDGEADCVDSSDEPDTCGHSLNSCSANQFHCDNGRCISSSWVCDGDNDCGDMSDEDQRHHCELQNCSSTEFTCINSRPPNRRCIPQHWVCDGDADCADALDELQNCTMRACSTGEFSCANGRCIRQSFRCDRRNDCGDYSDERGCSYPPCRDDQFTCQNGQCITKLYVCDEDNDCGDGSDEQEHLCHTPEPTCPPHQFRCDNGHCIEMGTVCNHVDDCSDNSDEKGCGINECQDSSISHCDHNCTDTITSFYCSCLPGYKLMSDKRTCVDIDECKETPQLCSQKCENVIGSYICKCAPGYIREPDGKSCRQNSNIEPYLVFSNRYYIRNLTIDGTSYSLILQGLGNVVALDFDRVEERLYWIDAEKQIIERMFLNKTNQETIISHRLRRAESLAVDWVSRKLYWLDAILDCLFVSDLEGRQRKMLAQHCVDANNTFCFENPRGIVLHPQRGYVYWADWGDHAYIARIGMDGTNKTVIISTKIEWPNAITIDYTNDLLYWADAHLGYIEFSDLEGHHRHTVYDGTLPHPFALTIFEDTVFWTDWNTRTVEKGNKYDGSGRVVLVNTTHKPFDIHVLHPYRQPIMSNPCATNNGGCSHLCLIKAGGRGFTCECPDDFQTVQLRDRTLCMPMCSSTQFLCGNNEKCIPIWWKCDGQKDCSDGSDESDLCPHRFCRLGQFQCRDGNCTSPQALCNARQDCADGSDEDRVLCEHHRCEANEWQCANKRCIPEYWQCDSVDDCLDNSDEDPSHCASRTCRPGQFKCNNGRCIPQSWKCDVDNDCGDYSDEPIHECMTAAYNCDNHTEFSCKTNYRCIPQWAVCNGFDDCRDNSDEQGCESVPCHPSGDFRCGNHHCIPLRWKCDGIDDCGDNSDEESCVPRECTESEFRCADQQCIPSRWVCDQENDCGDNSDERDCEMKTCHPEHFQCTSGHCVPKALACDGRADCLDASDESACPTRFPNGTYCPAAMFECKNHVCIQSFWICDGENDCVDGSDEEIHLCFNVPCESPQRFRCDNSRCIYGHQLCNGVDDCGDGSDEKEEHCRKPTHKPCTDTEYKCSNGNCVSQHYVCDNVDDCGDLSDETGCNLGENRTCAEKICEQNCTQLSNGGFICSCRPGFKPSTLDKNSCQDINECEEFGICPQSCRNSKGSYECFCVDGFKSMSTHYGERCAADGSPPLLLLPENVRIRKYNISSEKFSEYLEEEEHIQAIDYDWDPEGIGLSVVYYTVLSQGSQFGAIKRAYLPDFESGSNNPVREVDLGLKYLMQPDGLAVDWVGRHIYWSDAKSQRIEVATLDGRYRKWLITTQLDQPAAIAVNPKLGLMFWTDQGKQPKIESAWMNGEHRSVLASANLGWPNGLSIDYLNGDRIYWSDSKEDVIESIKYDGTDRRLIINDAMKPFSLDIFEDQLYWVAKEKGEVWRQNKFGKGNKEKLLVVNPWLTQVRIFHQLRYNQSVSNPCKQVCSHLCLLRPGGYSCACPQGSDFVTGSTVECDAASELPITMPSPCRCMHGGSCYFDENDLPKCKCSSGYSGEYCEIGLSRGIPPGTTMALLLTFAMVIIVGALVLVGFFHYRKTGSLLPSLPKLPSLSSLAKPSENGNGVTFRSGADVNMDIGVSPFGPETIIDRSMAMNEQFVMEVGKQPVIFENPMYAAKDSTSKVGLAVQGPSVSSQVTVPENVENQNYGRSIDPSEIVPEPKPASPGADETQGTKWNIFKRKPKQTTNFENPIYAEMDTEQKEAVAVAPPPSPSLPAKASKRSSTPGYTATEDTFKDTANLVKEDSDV

Compound: 45% PEG2000-(EEKKK)3E micelle (peptide (EEKKK)3E with added N-terminal cysteine, conjugated to DSPE-PEG(2000)-maleimide)
- Pearson's R value (colocalization) [1]: 0.53

Compound: 45% PEG2000-(KKEEE)3K micelle (kidney-targeting peptide (KKEEE)3K with added N-terminal cysteine, conjugated to DSPE-PEG(2000)-maleimide)
- Pearson's R value (colocalization) [1]: 0.48

Compound: CO[C@H]1C[C@@H]2CC[C@@H](C)[C@@](O)(O2)C(=O)C(=O)N2CCCC[C@H]2C(=O)O[C@H]([C@H](C)C[C@@H]2CC[C@@H](OCCO)[C@H](OC)C2)CC(=O)[C@H](C)/C=C(\C)[C@@H](O)[C@@H](OC)C(=O)[C@H](C)C[C@H](C)/C=C/C=C/C=C/1C [Everolimus]
- solubility [2]: < 100 µg/mL
- Encapsulation efficiency (%) [3, 16]: 87.1 ± 2.0%
- Loading capacity (wt/wt %) [3, 16]: 13.0 ± 0.3 wt/wt %
- Moles drug per mole micelle [3, 16]: 0.1 ± 0.01
- Size (nm) ([3]; drug-loaded micelles, lipid:drug 2:1): 21.0 ± 1.3 nm

Compound: CO[C@H]1C[C@@H]2CC[C@@H](C)[C@@](O)(O2)C(=O)C(=O)N2CCCC[C@H]2C(=O)O[C@H]([C@H](C)C[C@@H]2CC[C@@H](O)[C@H](OC)C2)CC(=O)[C@H](C)/C=C(\C)[C@@H](O)[C@@H](OC)C(=O)[C@H](C)C[C@H](C)/C=C/C=C/C=C/1C [Rapamycin]
- solubility [2]: 5 to 20 µg/mL (≈ 5.47 to 21.9 µM)

Compound: CCN(CC)c1ccc2c(-c3ccccc3C(=O)O)c3ccc(=[N+](CC)CC)cc-3oc2c1.[Cl-] [free R, Rhodamine B]
- absolute bioavailability [4]: 47.9%
- intestinal localization [5]: localized to the duodenum and ileum
- reduction in transport between the colchicine and wortmannin conditions [6]: No statistically significant reduction
- changes in TER [7]: No changes in TER
- % of total organ fluorescence accumulation in the intestines ([8]; 3 h): 45.8±14.0%
- % of total organ fluorescence accumulation in the intestines ([8]; 24 h): 37.4±15.5%
- % of total organ fluorescence accumulation in the intestines ([8]; 48 h): 38.5±15.1%

Compound: CN(C)C(=N)N=C(N)N [free met, metformin]
- serum components, electrolytes, and kidney health markers [9]: no significant difference between groups
- phosphorylated AMPK to total AMPK compared to CS-NP [10]: significant increase
- patients with gastrointestinal (GI) discomfort [11]: 25%
- patients with complete intolerance for the drug ([11]; listed as met): approximately 5%
- patients with complete intolerance for the drug ([11]; listed as metformin): 5%
- ENaC current [12]: 79.2 μA/cm2

Compound: Cc1ccccc1C(=O)Nc1ccc(C(=O)N2CCCC(O)c3cc(Cl)ccc32)c(C)c1 (stereo not drawn) [tolvaptan]
- clinical trial dropout rate [13]: 23%

Compound: CKDSPKSSKSIRFIPVST (listed as Homo sapiens)
- Water solubility [14]: Good
- Targeting location [15]: Type A

Compound: ELRGDRAKL-C: alternative CCD-targeting peptide, SEQ ID NO: 56 (ELRGDRAKLC; listed as Homo sapiens)
- Water solubility [14]: Good
- Targeting location [15]: CCD

Compound: KMGGTNHPE-C: cortical collecting duct (CCD)-targeting peptide, SEQ ID NO: 53 (KMGGTNHPEC; listed as Homo sapiens)
- Water solubility [14]: Good
- Targeting location [15]: PCT and CCD

Compound: MGSHIEPGG-C: cortical collecting duct (CCD)-targeting peptide, SEQ ID NO: 52 (MGSHIEPGGC; listed as Homo sapiens)
- Water solubility [14]: Good
- Targeting location [15]: PCT and CCD
